Tests used:
Assay in all cases: KinomeScan
Format in all cases: binding
Details in all cases: 1 μM
ACVRL1 = target: T1, ACVRL1 (Homo sapiens, UniProt P37023)
T1 construct: purchased DiscoverX (KINOMEscan)

BTK = target: T2, BTK (Homo sapiens, UniProt Q06187)
T2 construct: purchased DiscoverX (KINOMEscan)

CAMK1 = target: T3, CAMK1 (Homo sapiens, UniProt Q14012)
T3 construct: purchased DiscoverX (KINOMEscan)

CDKL2 = target: T4, CDKL2 (Homo sapiens, UniProt Q92772)
T4 construct: purchased DiscoverX (KINOMEscan)

CLK3 = target: T5, CLK3 (Homo sapiens, UniProt P49761)
T5 construct: purchased DiscoverX (KINOMEscan)

CTK = target: T6, CTK (Homo sapiens, UniProt P42679)
T6 construct: purchased DiscoverX (KINOMEscan)

DCAMKL2 = target: T7, DCAMKL2 (Homo sapiens, UniProt Q8N568)
T7 construct: purchased DiscoverX (KINOMEscan)

DRAK2 = target: T8, DRAK2 (Homo sapiens, UniProt O94768)
T8 construct: purchased DiscoverX (KINOMEscan)

EGFR(L861Q) = target: T9, EGFR(L861Q) (Homo sapiens, UniProt P00533, L861Q)
T9 construct: purchased DiscoverX (KINOMEscan)

EPHA2 = target: T10, EPHA2 (Homo sapiens, UniProt P29317)
T10 construct: purchased DiscoverX (KINOMEscan)

EPHA4 = target: T11, EPHA4 (Homo sapiens, UniProt P54764)
T11 construct: purchased DiscoverX (KINOMEscan)

FGFR3 = target: T12, FGFR3 (Homo sapiens, UniProt P22607)
T12 construct: purchased DiscoverX (KINOMEscan)

FLT3(D835Y) = target: T13, FLT3(D835Y) (Homo sapiens, UniProt P36888, D835Y)
T13 construct: purchased DiscoverX (KINOMEscan)

FYN = target: T14, FYN (Homo sapiens, UniProt P06241)
T14 construct: purchased DiscoverX (KINOMEscan)

GRK7 = target: T15, GRK7 (Homo sapiens, UniProt Q8WTQ7)
T15 construct: purchased DiscoverX (KINOMEscan)

GSK3A = target: T16, GSK3A (Homo sapiens, UniProt P49840)
T16 construct: purchased DiscoverX (KINOMEscan)

HIPK1 = target: T17, HIPK1 (Homo sapiens, UniProt Q86Z02)
T17 construct: purchased DiscoverX (KINOMEscan)

HIPK2 = target: T18, HIPK2 (Homo sapiens, UniProt Q9H2X6)
T18 construct: purchased DiscoverX (KINOMEscan)

HUNK = target: T19, HUNK (Homo sapiens, UniProt P57058)
T19 construct: purchased DiscoverX (KINOMEscan)

IKK-epsilon = target: T20, IKK-epsilon (Homo sapiens, UniProt Q14164)
T20 construct: purchased DiscoverX (KINOMEscan)

INSR = target: T21, INSR (Homo sapiens, UniProt P06213)
T21 construct: purchased DiscoverX (KINOMEscan)

[1] = target: T22, JAK1(JH1domain-catalytic) (Homo sapiens, UniProt P23458)
T22 construct: JAK1(JH1domain-catalytic); purchased DiscoverX (KINOMEscan)

KIT(D816V) = target: T23, KIT(D816V) (Homo sapiens, UniProt P10721, D816V)
T23 construct: purchased DiscoverX (KINOMEscan)

KIT(V559D,V654A) = target: T24, KIT(V559D,V654A) (Homo sapiens, UniProt P10721, V559D/V654A)
T24 construct: purchased DiscoverX (KINOMEscan)

MAP4K4 = target: T25, MAP4K4 (Homo sapiens, UniProt O95819)
T25 construct: purchased DiscoverX (KINOMEscan)

MARK3 = target: T26, MARK3 (Homo sapiens, UniProt P27448)
T26 construct: purchased DiscoverX (KINOMEscan)

MKK7 = target: T27, MKK7 (Homo sapiens, UniProt O14733)
T27 construct: purchased DiscoverX (KINOMEscan)

MTOR = target: T28, MTOR (Homo sapiens, UniProt P42345)
T28 construct: purchased DiscoverX (KINOMEscan)

MYO3A = target: T29, MYO3A (Homo sapiens, UniProt Q8NEV4)
T29 construct: purchased DiscoverX (KINOMEscan)

NEK7 = target: T30, NEK7 (Homo sapiens, UniProt Q8TDX7)
T30 construct: purchased DiscoverX (KINOMEscan)

NEK9 = target: T31, NEK9 (Homo sapiens, UniProt Q8TD19)
T31 construct: purchased DiscoverX (KINOMEscan)

SNRK = target: T32, SNRK (Homo sapiens, UniProt Q9NRH2)
T32 construct: purchased DiscoverX (KINOMEscan)

TAOK2 = target: T33, TAOK2 (Homo sapiens, UniProt Q9UL54)
T33 construct: purchased DiscoverX (KINOMEscan)

TEC = target: T34, TEC (Homo sapiens, UniProt P42680)
T34 construct: purchased DiscoverX (KINOMEscan)

TGFBR2 = target: T35, TGFBR2 (Homo sapiens, UniProt P37173)
T35 construct: purchased DiscoverX (KINOMEscan)

WEE1 = target: T36, WEE1 (Homo sapiens, UniProt P30291)
T36 construct: purchased DiscoverX (KINOMEscan)

YANK1 = target: T37, YANK1 (Homo sapiens, UniProt Q8WU08)
T37 construct: purchased DiscoverX (KINOMEscan)

Measured: Score

T24 sequence (P10721 26-976 V559D/V654A): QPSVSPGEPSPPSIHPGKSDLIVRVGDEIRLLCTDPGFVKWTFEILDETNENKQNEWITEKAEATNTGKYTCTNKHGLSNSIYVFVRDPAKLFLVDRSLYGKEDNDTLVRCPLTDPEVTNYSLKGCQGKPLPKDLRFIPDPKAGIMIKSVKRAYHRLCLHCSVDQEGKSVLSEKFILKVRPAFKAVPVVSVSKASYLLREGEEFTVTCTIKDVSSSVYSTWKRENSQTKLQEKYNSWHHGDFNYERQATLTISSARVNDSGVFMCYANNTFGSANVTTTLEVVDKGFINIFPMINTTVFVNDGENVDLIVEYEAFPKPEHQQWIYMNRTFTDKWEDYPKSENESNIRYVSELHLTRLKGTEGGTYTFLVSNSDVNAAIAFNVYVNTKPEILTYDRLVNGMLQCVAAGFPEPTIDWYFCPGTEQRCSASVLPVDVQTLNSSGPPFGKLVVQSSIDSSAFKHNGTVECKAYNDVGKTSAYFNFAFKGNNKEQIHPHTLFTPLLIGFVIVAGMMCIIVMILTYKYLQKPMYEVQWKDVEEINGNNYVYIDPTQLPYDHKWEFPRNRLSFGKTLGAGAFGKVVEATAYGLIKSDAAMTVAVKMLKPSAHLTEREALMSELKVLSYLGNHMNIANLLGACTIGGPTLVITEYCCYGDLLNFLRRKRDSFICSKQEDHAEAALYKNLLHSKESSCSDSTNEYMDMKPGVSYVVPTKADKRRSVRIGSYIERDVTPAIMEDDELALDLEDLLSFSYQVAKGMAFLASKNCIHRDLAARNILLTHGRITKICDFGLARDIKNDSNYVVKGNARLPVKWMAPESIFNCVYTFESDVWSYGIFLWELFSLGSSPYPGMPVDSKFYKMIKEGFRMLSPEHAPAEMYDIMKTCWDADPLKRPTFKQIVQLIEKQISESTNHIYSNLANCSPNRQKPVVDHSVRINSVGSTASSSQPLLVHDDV
T36 sequence (P30291 whole entry): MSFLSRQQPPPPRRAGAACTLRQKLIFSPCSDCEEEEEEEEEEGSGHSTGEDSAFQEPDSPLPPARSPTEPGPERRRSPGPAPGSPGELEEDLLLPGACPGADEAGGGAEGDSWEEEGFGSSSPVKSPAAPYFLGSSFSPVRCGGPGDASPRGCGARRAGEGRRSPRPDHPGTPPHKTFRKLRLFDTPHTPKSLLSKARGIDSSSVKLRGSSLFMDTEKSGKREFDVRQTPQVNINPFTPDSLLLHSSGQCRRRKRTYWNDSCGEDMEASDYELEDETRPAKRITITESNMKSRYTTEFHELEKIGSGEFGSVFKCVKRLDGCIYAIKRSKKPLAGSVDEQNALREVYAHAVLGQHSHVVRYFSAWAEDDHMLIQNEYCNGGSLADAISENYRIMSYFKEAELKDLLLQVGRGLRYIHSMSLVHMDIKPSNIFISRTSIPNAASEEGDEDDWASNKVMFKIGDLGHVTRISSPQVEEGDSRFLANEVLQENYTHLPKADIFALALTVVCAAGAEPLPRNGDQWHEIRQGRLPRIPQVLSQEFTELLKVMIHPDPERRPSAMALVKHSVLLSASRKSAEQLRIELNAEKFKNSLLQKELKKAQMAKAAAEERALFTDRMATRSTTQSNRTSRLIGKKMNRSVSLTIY
T32 sequence (Q9NRH2 whole entry): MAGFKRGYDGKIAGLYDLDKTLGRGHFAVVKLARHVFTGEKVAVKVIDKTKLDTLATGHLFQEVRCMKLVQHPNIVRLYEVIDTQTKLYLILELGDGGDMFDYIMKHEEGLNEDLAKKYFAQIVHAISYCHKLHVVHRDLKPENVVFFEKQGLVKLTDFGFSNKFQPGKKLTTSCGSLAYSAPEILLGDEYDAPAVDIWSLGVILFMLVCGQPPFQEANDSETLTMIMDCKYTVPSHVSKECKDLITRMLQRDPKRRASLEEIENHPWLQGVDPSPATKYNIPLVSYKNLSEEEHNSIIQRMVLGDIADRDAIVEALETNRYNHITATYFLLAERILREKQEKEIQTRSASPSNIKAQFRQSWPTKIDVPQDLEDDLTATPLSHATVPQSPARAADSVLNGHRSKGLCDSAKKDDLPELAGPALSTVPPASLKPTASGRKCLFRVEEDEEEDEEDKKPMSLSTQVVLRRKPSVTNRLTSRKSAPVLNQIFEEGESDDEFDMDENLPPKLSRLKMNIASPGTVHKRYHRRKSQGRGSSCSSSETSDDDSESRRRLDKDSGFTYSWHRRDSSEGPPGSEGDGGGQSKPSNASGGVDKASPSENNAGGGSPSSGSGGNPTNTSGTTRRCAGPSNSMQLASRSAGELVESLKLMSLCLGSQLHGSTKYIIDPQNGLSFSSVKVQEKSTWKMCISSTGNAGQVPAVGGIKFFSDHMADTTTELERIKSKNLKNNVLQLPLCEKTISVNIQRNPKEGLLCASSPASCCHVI
T34 sequence (P42680 whole entry): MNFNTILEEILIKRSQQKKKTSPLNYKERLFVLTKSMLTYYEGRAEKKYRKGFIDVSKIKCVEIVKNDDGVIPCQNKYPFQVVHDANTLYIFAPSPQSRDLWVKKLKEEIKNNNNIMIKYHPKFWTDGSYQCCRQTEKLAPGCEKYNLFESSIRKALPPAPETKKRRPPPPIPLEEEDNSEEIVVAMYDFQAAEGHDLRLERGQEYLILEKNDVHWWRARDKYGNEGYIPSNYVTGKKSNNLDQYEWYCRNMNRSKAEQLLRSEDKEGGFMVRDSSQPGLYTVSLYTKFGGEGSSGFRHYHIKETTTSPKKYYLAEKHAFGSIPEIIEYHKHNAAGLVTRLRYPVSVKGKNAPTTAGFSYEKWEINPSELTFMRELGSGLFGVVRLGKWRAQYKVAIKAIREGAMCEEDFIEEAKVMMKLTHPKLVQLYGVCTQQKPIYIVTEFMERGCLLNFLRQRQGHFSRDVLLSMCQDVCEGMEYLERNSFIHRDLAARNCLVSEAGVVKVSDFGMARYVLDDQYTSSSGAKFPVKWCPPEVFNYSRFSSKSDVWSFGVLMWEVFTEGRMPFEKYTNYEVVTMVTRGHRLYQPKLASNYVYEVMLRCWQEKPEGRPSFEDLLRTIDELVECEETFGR
T17 sequence (Q86Z02 whole entry): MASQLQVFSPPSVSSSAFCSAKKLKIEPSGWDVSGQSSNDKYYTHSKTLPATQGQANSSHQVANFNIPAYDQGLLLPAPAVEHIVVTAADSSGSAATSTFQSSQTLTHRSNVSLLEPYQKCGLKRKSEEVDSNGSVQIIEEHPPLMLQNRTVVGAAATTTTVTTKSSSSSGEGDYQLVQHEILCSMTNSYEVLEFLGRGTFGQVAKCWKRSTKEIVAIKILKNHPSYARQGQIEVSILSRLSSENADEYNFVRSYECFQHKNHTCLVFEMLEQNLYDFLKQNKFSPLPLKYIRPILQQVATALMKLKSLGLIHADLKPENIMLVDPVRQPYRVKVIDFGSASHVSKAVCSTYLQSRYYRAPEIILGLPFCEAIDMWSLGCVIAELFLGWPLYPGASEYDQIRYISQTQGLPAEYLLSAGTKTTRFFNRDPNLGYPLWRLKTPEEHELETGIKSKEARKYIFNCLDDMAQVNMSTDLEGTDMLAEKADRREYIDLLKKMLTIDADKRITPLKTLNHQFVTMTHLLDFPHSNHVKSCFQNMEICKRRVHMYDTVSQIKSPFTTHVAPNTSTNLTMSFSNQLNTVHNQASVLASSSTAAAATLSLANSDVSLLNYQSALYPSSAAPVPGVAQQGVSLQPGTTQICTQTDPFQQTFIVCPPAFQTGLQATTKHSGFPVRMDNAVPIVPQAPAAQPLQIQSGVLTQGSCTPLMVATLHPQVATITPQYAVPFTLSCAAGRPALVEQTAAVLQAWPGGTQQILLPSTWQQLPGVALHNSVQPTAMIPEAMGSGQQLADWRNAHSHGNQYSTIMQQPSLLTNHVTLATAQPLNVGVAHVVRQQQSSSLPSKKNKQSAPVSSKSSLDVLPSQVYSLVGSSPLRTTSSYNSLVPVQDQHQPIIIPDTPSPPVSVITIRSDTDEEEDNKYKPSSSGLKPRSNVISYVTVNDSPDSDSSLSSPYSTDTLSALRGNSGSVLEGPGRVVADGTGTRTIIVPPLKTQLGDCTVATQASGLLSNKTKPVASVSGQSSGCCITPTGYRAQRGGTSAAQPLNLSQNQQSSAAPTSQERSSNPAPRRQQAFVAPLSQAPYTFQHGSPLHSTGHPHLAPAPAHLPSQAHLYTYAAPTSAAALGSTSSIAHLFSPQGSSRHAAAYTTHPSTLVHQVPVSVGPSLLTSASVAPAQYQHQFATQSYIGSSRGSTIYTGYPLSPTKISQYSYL
T6 sequence (P42679 whole entry): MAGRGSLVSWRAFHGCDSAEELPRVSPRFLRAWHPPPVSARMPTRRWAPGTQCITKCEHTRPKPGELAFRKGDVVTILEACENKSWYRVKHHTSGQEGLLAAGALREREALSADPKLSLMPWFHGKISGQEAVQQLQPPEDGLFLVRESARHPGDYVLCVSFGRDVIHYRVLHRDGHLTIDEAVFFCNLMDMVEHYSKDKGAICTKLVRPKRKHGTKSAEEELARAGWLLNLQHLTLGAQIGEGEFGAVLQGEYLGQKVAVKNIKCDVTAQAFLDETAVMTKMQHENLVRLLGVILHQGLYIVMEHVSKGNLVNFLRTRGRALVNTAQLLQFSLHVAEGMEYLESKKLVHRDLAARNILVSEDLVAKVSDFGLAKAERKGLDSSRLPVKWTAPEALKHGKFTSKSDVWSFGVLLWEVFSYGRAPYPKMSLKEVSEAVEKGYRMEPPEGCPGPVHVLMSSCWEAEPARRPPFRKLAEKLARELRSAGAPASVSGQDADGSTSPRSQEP
T22 sequence (P23458 854-1154 limits assumed): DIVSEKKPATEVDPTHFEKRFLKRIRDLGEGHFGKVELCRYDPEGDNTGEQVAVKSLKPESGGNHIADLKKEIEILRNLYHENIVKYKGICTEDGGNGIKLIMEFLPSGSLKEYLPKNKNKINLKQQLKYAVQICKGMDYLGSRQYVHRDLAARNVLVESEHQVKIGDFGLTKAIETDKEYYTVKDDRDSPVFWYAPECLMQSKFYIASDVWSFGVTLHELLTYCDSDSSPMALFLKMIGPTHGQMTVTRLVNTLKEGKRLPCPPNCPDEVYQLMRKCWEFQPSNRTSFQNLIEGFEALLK
T23 sequence (P10721 26-976 D816V): as the sequence (P10721 26-976 V559D/V654A) above, with D534V, A629V, D791V counted along it

COc1cc(/C=C2\N=C(N)NC2=O)ccc1O [Polyandrocarpamine A]
90: INSR
51: DRAK2
98: MAP4K4 | TEC
84: MTOR
50: HIPK2
83: EPHA4
52: HIPK1
89: IKK-epsilon | MKK7
69: CLK3
72: [1]
100: all other assays above

Source: PMC5666424, “Marine-Derived 2-Aminoimidazolone Alkaloids. Leucettamine B-Related Polyandrocarpamines Inhibit Mammalian and Protozoan DYRK & CLK Kinases” (Marine Drugs, 2017)
